Results on 1 compound are retold here after publication PMC9246869, “Allosteric inhibition of PPM1D serine/threonine phosphatase via an altered conformational state” (Nature Communications, 2022).

One data set in a line: Solubility. Type of data set: physicochemical. The note with it: precluded ITC.
In data set [1] the target is T1, PPM1D1–420 (Homo sapiens, UniProt O15297).
T1 construct: PPM1D1–420 was PCR-amplified from the synthesized gene with BsaI sites; His(6)-SUMO (N, cleaved yes); made in house; host or cells: E. coli BL21 (DE3)
T1 sequence (O15297 1-420): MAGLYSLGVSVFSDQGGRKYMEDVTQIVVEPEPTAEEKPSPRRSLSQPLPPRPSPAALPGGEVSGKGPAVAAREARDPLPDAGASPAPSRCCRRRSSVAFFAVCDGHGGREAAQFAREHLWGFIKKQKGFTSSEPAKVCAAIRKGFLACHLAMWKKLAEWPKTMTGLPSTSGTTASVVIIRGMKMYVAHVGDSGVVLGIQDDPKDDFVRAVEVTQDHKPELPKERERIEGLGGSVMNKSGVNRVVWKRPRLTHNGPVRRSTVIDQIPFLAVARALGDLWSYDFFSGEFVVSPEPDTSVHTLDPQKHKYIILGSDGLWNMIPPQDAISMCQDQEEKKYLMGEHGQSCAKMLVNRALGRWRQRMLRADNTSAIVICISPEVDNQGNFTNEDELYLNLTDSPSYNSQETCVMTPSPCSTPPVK
Kind of data set: Differential scanning fluorimetry (DSF). Type of data set: binding. More on the design: key to DSF Trial 1 (Tm) / DSF Trial 2 (Tm) / DSF Trial 3 (Tm) / DSF average (Tm) / DSF melting temperature with GSK2830371 / DSF melting temperature with GSK2830371, Average: melting temperature Tm in °C. The protocol: The purified protein constructs were mixed in the assay buffer containing 25 mM HEPES pH 7.5, 10 mM MgCl2, 150 mM NaCl. The sample preparation for the DSF assay included incubating the protein constructs (final concentration 0.2–0.4 mg/mL) with either DMSO alone (control) or with 40 µM GSK2830371 for 30 min before the addition of the Sypro orange dye (final concentration 10×). The final reaction volume of 10 µL was pipetted into a 384 multi-well clear plate (Light Cycler 480), sealed using a foil and spun down at 1000 × g for 2 min. The fluorescence emission intensity of the Sypro Orange dye was monitored in a LightCycler-480 instrument by running the Protein Melt program. The program was run in a continuous acquisition mode from 25 °C to 95 °C with a ramp rate of 0.06 °C/s (with 10 acquisitions/°C). The data (first derivative of the fluorescence signal as a function of temperature) was analyzed using the LightCycler-480 software for measuring the Tm values with and without the compound. A separate control with buffer alone and buffer with compound was run in the same plate to subtract out the potential interactions of the buffer components and/or the compound with the dye.

For another data set, the target named is T2, PPM1DΔflap (Homo sapiens, UniProt O15297, DEL219-231/DEL235-284/E287S/S285N).
T2 construct: PPM1D1–218-GGSNGS-288–420 (PPM1D∆flap); His(6)-SUMO (N, cleaved yes); made in house; host or cells: E. coli BL21 (DE3)
T2 sequence (O15297 with tags, fused parts or gaps DEL219-231/DEL235-284/S285N/E287S): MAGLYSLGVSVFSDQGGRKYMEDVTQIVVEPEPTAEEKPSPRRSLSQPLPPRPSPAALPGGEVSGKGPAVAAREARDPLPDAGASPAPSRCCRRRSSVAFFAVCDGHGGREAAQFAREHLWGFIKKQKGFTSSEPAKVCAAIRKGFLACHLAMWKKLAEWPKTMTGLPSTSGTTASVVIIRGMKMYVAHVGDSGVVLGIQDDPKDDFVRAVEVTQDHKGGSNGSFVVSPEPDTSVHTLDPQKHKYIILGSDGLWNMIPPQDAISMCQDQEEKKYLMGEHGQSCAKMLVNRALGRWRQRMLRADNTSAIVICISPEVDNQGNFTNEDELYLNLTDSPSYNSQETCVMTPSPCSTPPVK
Briefly: Surface plasmon resonance (SPR). Type of data set: binding. As to the method:
(§1) SPR was carried out on the Biacore S200 (GE Healthcare) using Series S sensor chip NTA (GE BR-1005-32). The preparation of the chip surface was conducted according to the manufacturer’s indications. The running buffer contained 50 mM Tris (pH 7.5), 50 mM NaCl, 1 mM MgCl2, 0.5 mM TCEP, 0.005% (v/v) P20 surfactant, and 2% DMSO. PPM1D1–420 and PPM1D∆Flap were run under single-cycle mode due to the slow-off-rate kinetics. The two proteins were immobilized on the chip surface in flow cells 2 and 3 with a signal of ~1500–2000 RU at a rate of 5 μL/min while flow cell 1 was left blank as a reference. The running buffer was injected three times followed by the GSK2830371 analyte in solution. Injections were carried out at a flow rate of 50 μL/min with the analyte in a concentration series of 5-point, 3-fold ending at 400 nM top dose. The association and dissociation phases were monitored for 90 s and 600 s, respectively. Collected data were evaluated using the Biacore S200 Evaluation Software under 1:1 binding mode. PPM1D∆Hinge was run under multi-cycle mode due to its fast-on/fast-off kinetics. The protein was immobilized to give a signal of ~ 3000 RU. GSK2830371 analyte in solution was injected at a flow rate of 90 μL/min in a 10-pt, 2-fold concentration series ending at 15 μM top dose. The association and dissociation phases were monitored for 45 s and 150 s, respectively. Since GSK2830371 had issues with solubility/aggregation at high concentrations that caused artifacts in sensorgrams, only steady-state analysis was performed to extract Kd.

The target in data set [2] is T1, PPM1D1–420. Briefly: Surface plasmon resonance (SPR). Type of data set: binding. To be noted: for Kd: read-out: KD. The protocol:
as §1

[3] abbreviates: source data Fig 3C, with GSK, in °C (unit assumed).

“And” between values parts separate entries of the source, which are not always exact repeats. Equal entries are not always repeated. Where two headings read alike, the source gives them in different places.

Consider `Cc1ncc(Cl)cc1NCc1ccc(C(=O)N[C@@H](CC2CCCC2)C(=O)NC2CC2)s1` [GSK2830371], for which the “solubility (in words)” value in “Solubility” is given as “relatively low solubility”. Besides, the “DSF melting temperature with GSK2830371, Average” value at PPM1D1–420 [1] (PPM1D 1-420, average of 4 trials, in °C (unit assumed)) was 59.7917. The “DSF melting temperature with GSK2830371” value on PPM1D1–420 [1] (PPM1D 1-420, individual trials, in °C (unit assumed)) is 59.846 and 59.6596 and 59.8596 and 59.8015. The ΔTm at 40 µM on PPM1D1–420 [1] (PPM1D1–420, 40 µM compound, read-out: thermal shift by DSF) was approximately 8 °C. Also, the “DSF Trial 1 (melting temperature)” value at PPM1D1–420 [1] (Sup Fig 2D, protein with GSK vs WT (DMSO), trial 1) is 59.84 ˚C. Besides, the “DSF Trial 2 (melting temperature)” value at PPM1D1–420 [1] (Sup Fig 2D, protein with GSK vs WT (DMSO), trial 2) is 59.65 ˚C. The “DSF Trial 3 (melting temperature)” value on PPM1D1–420 [1] (Sup Fig 2D, protein with GSK vs WT (DMSO), trial 3) was 59.85 ˚C. In addition, the “DSF Average (melting temperature)” value on PPM1D1–420 [1] (Sup Fig 2D, protein with GSK, average of trials) is on record as 59.78 ˚C. Further, the “DSF average (Tm)” value on PPM1D1–420 [1] (source data Fig 3C, with GSK, column head empty, in °C (unit assumed)) worked out at 59.78. The “DSF Trial 1 (Tm)” value on PPM1D1–420 [1] (setting [3]) was found to be 59.84. Also, the “DSF Trial 2 (Tm)” value at PPM1D1–420 [1] (setting [3]) was determined as 59.65. Moreover, at PPM1D1–420 [1] (setting [3]), the “DSF Trial 3 (Tm)” value was determined as 59.85. Moreover, the Kd at PPM1DΔflap (PPM1DΔflap, Fig. 6A) was 1 nM; on PPM1D1–420 [2] (Fig 3D, Average of 3 trials) it was 1.2 nM; at PPM1D1–420 [2] (Fig 3D, individual trials), 0.8 nM and 1 nM. Besides, the dissociation rate constant (koff) was 0.0045 s⁻¹ on PPM1DΔflap (read-out: koff (SPR)); 0.00024 s⁻¹ on PPM1D1–420 [2] (Fig 3D, Average of 3 trials); 0.00011 s⁻¹ and 0.00028 s⁻¹ and 0.00033 s⁻¹ at PPM1D1–420 [2] (Fig 3D, individual trials). The on-rate constant (kon) is 5e+06 M⁻¹ s⁻¹ at PPM1DΔflap (read-out: kon (SPR)); 433000 M⁻¹ s⁻¹ at PPM1D1–420 [2] (Fig 3D, Average of 3 trials); 595000 M⁻¹ s⁻¹ and 343000 M⁻¹ s⁻¹ and 362000 M⁻¹ s⁻¹ on PPM1D1–420 [2] (Fig 3D, individual trials); 430000 ± 100000 M⁻¹ s⁻¹ at PPM1D1–420 [2] (read-out: kon (SPR), PPM1D1–420, Fig. 3D).
